Data set [1] can be described thus: Blood Brain Barrier (BBB) data, brain/plasma ratio (Table B). The data set is classed as in vivo. The conditions noted are these: brain and plasma; calculated at a 3 hr time point; Table B column heads <0.1, 0.1-1, >1; cells list compound numbers. The procedure:
Blood Brain Barrier (BBB) data was evaluated for compounds of the disclosure and the values are shown in Table B. Brain/plasma ratio was calculated at a 3 hr time point).

In data set [2] the test system is AMPK. Description: EC50 data of compounds of the disclosure (Table A; AMPK agonists). As to conditions: cells list compound numbers. The data set is classed as biochemical.

Kp and EC50 data for 33 molecules are collected here from patent US20250109119A1, “AMPK AGONISTS AND METHODS OF USE THEREOF” (Evvia Therapeutics, Inc., priority 2023, published 2025).

For the molecule `COc1nc(N(C)C)ccc1-c1cc2c(C(=O)NO)c[nH]c2cc1Cl` [compound 1001, 6-chloro-5-(6-(dimethylamino)-2-methoxypyridin-3-yl)-N-hydroxy-1H-indole-3-carboxamide], the Kp – broadly, tissue or fluid exposure divided by exposure in the circulation – at 3 h in data set [1] was below 0.1. On to `CONC(=O)c1c[nH]c2cc(Cl)c(-c3ccc(N(C)C)nc3OC)cc12` [compound 1003, 6-chloro-5-(6-(dimethylamino)-2-methoxypyridin-3-yl)-N-methoxy-1H-indole-3-carboxamide], for which the EC50 (usually the concentration at which the effect is half-maximal) in data set [2] (Table A column head '<100 nM') was below 0.1 µM. In addition, in data set [1], the Kp at 3 h is above 1. Take `CONC(=O)c1c[nH]c2cc(F)c(-c3ccc(C4CCCCO4)cc3)c(F)c12` (stereo not shown) [compound 1007, 4,6-difluoro-N-methoxy-5-(4-(tetrahydro-2H-pyran-2-yl)phenyl)-1H-indole-3-carboxamide]: in data set [2] (Table A column head '<100 nM'), the EC50 is below 0.1 µM. For `CCONC(=O)c1c[nH]c2cc(Cl)c(-c3ccc(N(C)C)nc3OC)cc12` [compound 1009, 6-chloro-5-(6-(dimethylamino)-2-methoxypyridin-3-yl)-N-ethoxy-1H-indole-3-carboxamide], the Kp at 3 h in data set [1] is 0.1 to 1.

Take `COCCONC(=O)c1c[nH]c2cc(Cl)c(-c3ccc(N(C)C)nc3OC)cc12` [compound 1011, 6-chloro-5-(6-(dimethylamino)-2-methoxypyridin-3-yl)-N-(2-methoxyethoxy)-1H-indole-3-carboxamide]: the partition ratio (Kp) at 3 h in data set [1] was 0.1 to 1. `COc1nc(N(C)C)ccc1-c1cc2c(C(=O)NOc3ccccc3)c[nH]c2cc1Cl` [compound 1012, 6-chloro-5-(6-(dimethylamino)-2-methoxypyridin-3-yl)-N-phenoxy-1H-indole-3-carboxamide] showed an EC50 in data set [2] (Table A '>10 μM') above 10 µM. Regarding `COc1nc(N(C)C)ccc1-c1cc2c(C(=O)NOCC3CC3)c[nH]c2cc1Cl` [compound 1015, 6-chloro-N-(cyclopropylmethoxy)-5-(6-(dimethylamino)-2-methoxypyridin-3-yl)-1H-indole-3-carboxamide], in data set [1], the Kp at 3 h is 0.1 to 1.

`CCOc1nc(N(C)C)ccc1-c1cc2c(C(=O)NOC)c[nH]c2cc1Cl` [compound 1020, 6-chloro-5-(6-(dimethylamino)-2-ethoxypyridin-3-yl)-N-methoxy-1H-indole-3-carboxamide] yielded an EC50 in data set [2] (Table A '>10 μM') above 10 µM. As to `CONC(=O)c1c[nH]c2cc(Cl)c(-c3ccc(N(C)C)nc3C(F)(F)F)cc12` [compound 1021, 6-chloro-5-(6-(dimethylamino)-2-(trifluoromethyl)pyridin-3-yl)-N-methoxy-1H-indole-3-carboxamide], the 50% effective concentration (EC50) in data set [2] (Table A '>10 μM') was above 10 µM. `CONS(=O)(=O)c1c[nH]c2cc(Cl)c(-c3ccc(N(C)C)nc3OC)cc12` [compound 1028, 6-chloro-5-(6-(dimethylamino)-2-methoxypyridin-3-yl)-N-methoxy-1H-indole-3-sulfonamide] returned an EC50 in data set [2] (Table A '>10 μM') above 10 µM. For `CONC(=O)c1c[nH]c2cc(Cl)c(-c3ccc(N(C)C)nc3O)cc12` [compound 1041], the EC50 in data set [2] (Table A '>10 μM') was above 10 µM.

For `COCCONC(=O)c1c[nH]c2cc(Cl)c(-c3ccc(C4(O)CCC4)cc3)cc12` [compound 1045], in data set [1], the Kp at 3 h was below 0.1. `CONC(=O)c1c[nH]c2cc(Cl)c(-c3ccc(N4CCC(C)CC4)nc3OC)cc12` [compound 1049]: the EC50 in data set [2] (Table A '>10 μM') is above 10 µM. On to `CONC(=O)c1c[nH]c2cc(Cl)c(-c3ccc(N4CC5(CCC5)C4)nc3OC)cc12` [compound 1050], for which, in data set [2] (Table A '>10 μM'), the EC50 was above 10 µM. On to `COCCN(C)c1ccc(-c2cc3c(C(=O)NOC)c[nH]c3cc2Cl)c(OC)n1` [compound 1051], for which the EC50 in data set [2] (Table A '>10 μM') is above 10 µM.

Molecule `CONC(=O)c1c[nH]c2cc(Cl)c(-c3ccc(N(C)CCOC(C)C)nc3OC)cc12` [compound 1052] had an EC50 in data set [2] (Table A '>10 μM') above 10 µM. Consider `CONC(=O)c1c[nH]c2cc(Cl)c(-c3ccc(N(C)CC4CCC4)nc3OC)cc12` [compound 1054], for which the EC50 in data set [2] (Table A '>10 μM') was above 10 µM. In turn, `CONC(=O)c1c[nH]c2cc(Cl)c(-c3ccc(N4CCC(F)(F)CC4)nc3OC)cc12` [compound 1058] returned an EC50 in data set [2] (Table A '>10 μM') above 10 µM.

The molecule `COc1nc(N(C)C)ccc1-c1cc2c(C(=O)NOCCN(C)C)c[nH]c2cc1Cl` [compound 1060] came in with a concentration for a half-maximal effect (EC50) in data set [2] (Table A '>10 μM') above 10 µM. The molecule `CONC(=O)c1c[nH]c2cc(Cl)c(-c3ccc(N(C)CCCN(C)C)nc3OC)cc12` [compound 1064] showed a concentration giving a half-maximal response (EC50) in data set [2] (Table A '>10 μM') above 10 µM. The same measure, in the same setting: the value for `CCN(CC)c1ccc(-c2cc3c(C(=O)NOC)c[nH]c3cc2Cl)c(OC)n1` [compound 1074] was above 10 µM. Still for that read-out and setting: then `CCONC(=O)c1c[nH]c2cc(Cl)c(-c3ccc(N(CC)CC)nc3OC)cc12` [compound 1075], with above 10 µM. For `CONC(=O)C(=O)c1c[nH]c2cc(Cl)c(-c3ccc(N(C)C)nc3OC)cc12` [compound 1077, 2-(6-chloro-5-(6-(dimethylamino)-2-methoxypyridin-3-yl)-1H-indol-3-yl)-N-methoxy-2-oxoacetamide], in data set [1], the Kp at 3 h is below 0.1.

As to `CCONC(=O)C(=O)c1c[nH]c2cc(Cl)c(-c3ccc(N(C)C)nc3OC)cc12` [compound 1081], the Kp at 3 h in data set [1] is below 0.1.

As for `OCC1(c2ccc(-c3cc4c(-c5nnn[nH]5)c[nH]c4cc3Cl)s2)CC1` [compound 1084], the Kp at 3 h in data set [1] is below 0.1.

Molecule `CCONC(=O)c1c[nH]c2cc(Cl)c(-c3ccc(N(C)C)nc3OC)nc12` [compound 1090] showed a 50% effective concentration (EC50) in data set [2] (Table A '>10 μM') above 10 µM. As to `CCONC(=O)c1c[nH]c2cc(Cl)c(-c3ccc(C#N)cc3OC)cc12` [compound 1097], in data set [2] (Table A '>10 μM'), the EC50 was above 10 µM. In turn, `CCONC(=O)c1c[nH]c2cc(Cl)c(-c3ccc(C4(O)CCC4)nc3)cc12` [compound 1099] gave an EC50 in data set [2] (Table A '>10 μM') above 10 µM. With `CCc1cc(N(C)C)ccc1-c1cc2c(C(=O)NOC)c[nH]c2cc1Cl` [compound 1100], in data set [2] (Table A '>10 μM'), the EC50 is above 10 µM.

`CCONC(=O)c1c[nH]c2cc(Cl)c(-c3ccc(C4(CO)CC4)nc3)cc12` [compound 1101] had an EC50 in data set [2] (Table A '>10 μM') above 10 µM. The same measure, in the same setting: then `CONS(=O)(=O)c1c[nH]c2cc(Cl)c(-c3ccc(C4CCCCO4)cc3)cc12` (stereo not shown) [compound 1109, 6-chloro-N-methoxy-5-(4-(tetrahydro-2H-pyran-2-yl)phenyl)-1H-indole-3-sulfonamide], with above 10 µM; and `CONS(=O)(=O)c1c[nH]c2cc(Cl)c(-c3ccc(-c4ccccc4)cc3)cc12` [compound 1110, 5-([1,1′-biphenyl]-4-yl)-6-chloro-N-methoxy-1H-indole-3-sulfonamide], with above 10 µM.

On to `CS(=O)(=O)NC(=O)c1c[nH]c2cc(Cl)c(-c3ccc(-c4ccccc4)cc3)cc12` [compound 1112], for which, in data set [1], the Kp at 3 h is below 0.1.
